Values belong to the molecule of their own block, whether it stands above or below them.
Experiments:
[1] = target: T1, OATP1B1 (Homo sapiens, UniProt Q9Y6L6); experiment: in vitro; type: cell-based; settings: oatp1b1-transfected cells
T1 sequence (Q9Y6L6 1-691): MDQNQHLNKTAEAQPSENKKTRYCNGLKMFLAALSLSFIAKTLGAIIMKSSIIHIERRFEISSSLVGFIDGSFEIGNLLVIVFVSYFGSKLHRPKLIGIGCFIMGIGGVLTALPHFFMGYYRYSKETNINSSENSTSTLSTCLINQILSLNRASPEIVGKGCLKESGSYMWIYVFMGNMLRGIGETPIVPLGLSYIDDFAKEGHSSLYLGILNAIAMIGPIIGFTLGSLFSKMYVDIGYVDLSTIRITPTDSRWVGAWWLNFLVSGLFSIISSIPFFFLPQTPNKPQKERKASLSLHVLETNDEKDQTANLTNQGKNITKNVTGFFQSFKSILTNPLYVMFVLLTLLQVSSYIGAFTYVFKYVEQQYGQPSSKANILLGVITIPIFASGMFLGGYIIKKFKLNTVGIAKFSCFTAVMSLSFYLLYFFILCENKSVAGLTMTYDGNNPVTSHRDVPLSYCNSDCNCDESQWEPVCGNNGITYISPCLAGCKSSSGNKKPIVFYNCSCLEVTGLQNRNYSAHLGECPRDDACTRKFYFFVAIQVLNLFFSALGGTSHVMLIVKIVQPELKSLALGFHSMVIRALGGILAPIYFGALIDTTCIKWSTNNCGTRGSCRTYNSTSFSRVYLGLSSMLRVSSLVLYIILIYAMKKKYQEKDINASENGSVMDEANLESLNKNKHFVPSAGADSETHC

[2] = target: T2, OAT1 (Homo sapiens, UniProt Q4U2R8); experiment: 3H-HDA uptake in OAT1-expressing HEK293 cells, blocked by probenecid; type: cell-based; settings: HEK293, read-out: % inhibition at 30 μM
T2 sequence (Q4U2R8 1-563): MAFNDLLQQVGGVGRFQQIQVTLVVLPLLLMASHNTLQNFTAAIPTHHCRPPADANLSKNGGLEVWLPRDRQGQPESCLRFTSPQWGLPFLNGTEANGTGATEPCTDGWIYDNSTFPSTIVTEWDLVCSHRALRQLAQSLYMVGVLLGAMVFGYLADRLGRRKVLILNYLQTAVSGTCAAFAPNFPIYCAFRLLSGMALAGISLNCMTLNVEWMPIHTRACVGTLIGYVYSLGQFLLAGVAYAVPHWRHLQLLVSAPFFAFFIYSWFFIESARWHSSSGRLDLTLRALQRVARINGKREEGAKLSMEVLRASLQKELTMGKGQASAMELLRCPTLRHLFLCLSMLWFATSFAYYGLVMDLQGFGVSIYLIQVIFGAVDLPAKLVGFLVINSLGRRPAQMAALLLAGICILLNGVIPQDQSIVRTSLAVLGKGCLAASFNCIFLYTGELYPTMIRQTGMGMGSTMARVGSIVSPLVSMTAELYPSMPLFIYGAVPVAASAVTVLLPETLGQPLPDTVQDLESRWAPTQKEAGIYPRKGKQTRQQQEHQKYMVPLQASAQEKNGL

[3] = target: T3, OAT3 (Homo sapiens, UniProt Q8TCC7); experiment: 3H-HDA uptake in OAT3-expressing HEK293 cells, blocked by probenecid; type: cell-based; settings: HEK293, read-out: % inhibition at 30 μM
T3 sequence (Q8TCC7 1-542): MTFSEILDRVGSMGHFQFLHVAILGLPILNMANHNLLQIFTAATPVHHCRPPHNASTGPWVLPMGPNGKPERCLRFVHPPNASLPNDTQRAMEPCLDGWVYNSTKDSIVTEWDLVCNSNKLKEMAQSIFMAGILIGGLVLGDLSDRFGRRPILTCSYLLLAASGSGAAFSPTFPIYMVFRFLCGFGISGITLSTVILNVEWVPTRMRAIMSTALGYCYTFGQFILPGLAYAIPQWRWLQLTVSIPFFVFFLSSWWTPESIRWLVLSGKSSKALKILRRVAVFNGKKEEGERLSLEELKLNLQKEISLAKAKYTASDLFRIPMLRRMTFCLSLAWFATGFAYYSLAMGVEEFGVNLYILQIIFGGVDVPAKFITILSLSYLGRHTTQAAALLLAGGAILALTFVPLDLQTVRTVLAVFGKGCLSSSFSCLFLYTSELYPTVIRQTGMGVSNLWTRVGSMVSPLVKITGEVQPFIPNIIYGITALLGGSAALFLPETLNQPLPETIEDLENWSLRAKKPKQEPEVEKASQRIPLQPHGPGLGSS

[4] = target: T1, OATP1B1; experiment: in vitro; settings: hek293 cells
[5] = target: T2, OAT1; experiment: 3H-TDA uptake in OAT1-expressing HEK293 cells, blocked by probenecid; type: cell-based; settings: HEK293, read-out: % inhibition at 30 μM
[6] = target: T3, OAT3; experiment: 3H-TDA uptake in OAT3-expressing HEK293 cells, blocked by probenecid; type: cell-based; settings: HEK293, read-out: % inhibition at 30 μM
[7] = target: T1, OATP1B1; experiment: in vitro; settings: hek293 cells; remark: listed apart in the source

Structure (SMILES): C[C@H](CCC(=O)NCC(=O)O)[C@H]1CC[C@H]2[C@@H]3CC[C@@H]4C[C@H](O)CC[C@]4(C)[C@H]3C[C@H](O)[C@]12C [Glycodeoxycholate]
inhibition at 30 µM [1]: > 70%

inhibition at 30 µM [2]: > 30%
inhibition at 30 µM [3]: > 70%
IC50 [4]: 1600 to 4000 nM
Structure (SMILES): O=C(O)CCCCCCCCCCCCCCC(=O)O [HDA, hexadecanedioic acid]

inhibition at 30 µM [5]: > 30%
inhibition at 30 µM [6]: > 70%
IC50 [7]: 1600 to 4000 nM
Structure (SMILES): O=C(O)CCCCCCCCCCCCC(=O)O [TDA, tetradecanedioic acid]

Structure (SMILES): C[C@H](CCC(=O)NCCS(=O)(=O)O)[C@H]1CC[C@H]2[C@@H]3CC[C@@H]4C[C@H](OS(=O)(=O)O)CC[C@]4(C)[C@H]3CC[C@]12C [TLS, Taurolithocholate 3-sulfate]
inhibition at 30 µM [1]: > 70%

Source: paper PMC6365106 (Clinical pharmacology and therapeutics, 2016)
